pIC50: −log10 of the molar value.

One test deals with T1, CDK9/Cyclin T1 (Homo sapiens, UniProt P50750).
T1 construct: purchased ProQinase GmbH (Freiburg, Germany)
Kind of test: Kinase inhibition assay, recombinant kinase, [γ-33P]ATP. Type of test: biochemical. To be noted: for remaining activity at 0.1 µM: 100 nM; for remaining activity at 0.1 µM / remaining activity at 1 µM: read-out: Residual kinase activity, CDK9; for remaining activity at 1 µM: 1000 nM. As for the experimental part:
(§1) CDK2/Cyclin E kinase was produced in Sf9 insect cells via baculoviral infection and purified on a NiNTA column (Qiagen). CDK5/p35, CDK7Cyclin H/MAT1 and CDK9/Cyclin T1 was purchased from ProQinase GmbH. The kinase reactions were assayed with 1 mg/mL histone H1 (for CDK2 and CDK5) or (YSPTSPS)2KK peptide (for CDK7 and CDK9) in the presence of 15/0.15/1.5/1.5 μM ATP (for CDK2/CDK5/CDK7CDK9), 0.05 μCi [γ-^33P]ATP and of the test compound in a final volume of 10 μL, all in a reaction buffer (60 mM HEPES-NaOH, pH 7.5, 3 mM MgCl2, 3 mM MnCl2, 3 μM Na-orthovanadate, 1.2 mM DTT, 2.5 μg/50 μl PEG20,000). The reactions were stopped by adding 5 μL of 3% aq H3PO4. Aliquots were spotted onto P-81 phosphocellulose (Whatman), washed 3× with 0.5% aq H3PO4 and finally air-dried.
(§2) CDK1/cyclin B and CDK2/cyclin E kinases were produced in Sf9 insect cells via baculoviral infection, while CDK5/p35, CDK7/cyclin H/MAT1, and CDK9/cyclin T1 were purchased from ProQinase (Freiburg, Germany) and assayed as described previously (35). The kinase reactions were assayed with 1 mg/ml histone H1 (for CDK2 and CDK5) or (YSPTSPS)2KK peptide (for CDK7 and CDK9) in the presence of 15/0.15/1.5/1.5 […] ATP (for CDK2/CDK5/CDK7CDK9), […] [γ-^33P]ATP and of the test compound in a final volume of […]. The reaction buffer contained 60 mM HEPES-NaOH, pH 7.5, 3 mM MgCl2, 3 mM MnCl2, 3 mM Na-orthovanadate, 1.2 mM DTT, 2.5 mg/50 ml PEG20.000. The reactions were stopped by adding […] of 3% H3PO4. Aliquots were spotted onto P-81 phosphocellulose (Whatman, GE Healthcare Biosciences, Pittsburgh, USA), washed 3 times with 0.5% H3PO4 and finally air-dried. Kinase inhibition was quantified using a FLA-7000 digital image analyzer (Fujifilm, Tokyo, Japan).

In a further test the target is T2, CDK7/cyclin H/MAT1 (Homo sapiens, UniProt P50613).
T2 construct: purchased ProQinase GmbH (Freiburg, Germany)
Described as above. It is filed as biochemical. The following applies: read-out: Residual kinase activity, CDK7; for remaining activity at 0.1 µM: 100 nM; for remaining activity at 1 µM: 1000 nM. As for the experimental part:
as §1, §2

In the next test the target is T3, CDK5/p35 (Homo sapiens, UniProt Q00535).
T3 construct: purchased ProQinase GmbH (Freiburg, Germany)
The description is as above. It is filed as biochemical. The following applies: read-out: Residual kinase activity, CDK5; for remaining activity at 0.1 µM: 100 nM; for remaining activity at 1 µM: 1000 nM. As for the experimental part: as §1, §2

For the next test, the system named is HepG2 and PLC cells. The experiment in a line: Clonogenic survival assay. It is filed as cell-based, human. The following applies: 0.2 μM. How it is done: To analyze the clonogenic growth behavior of cell populations on tissue culture plastic, 500 cells were seeded in a 6-well plate and, either untreated or pretreated with BA-12 or BP-14 for 24 hours, incubated with standard medium for 10 days at 37° C. and 5% CO2. Colonies were fixed with methanol/acetic acid (3:1) and stained with 0.25% crystal violet. The crystal violet of fixed cells was solubilized with 1% SDS and the absorbance was photometrically determined at 560 nm.

A further test deals with HUVEC cells. The experiment in a line: Tube formation assay on Matrigel. It is filed as cell-based, human. The following applies: 24 h treatment. As for the experimental part:
For an evaluation of tube formation, HUVEC cells in endothelial cell growth medium (ECGM) containing tested compound were seeded onto Matrigel® (BD) coated ibidi angiogenesis slides (15-well, ibidi GmbH, Munich, Germany). After 24 h, images were taken using the Olympus BX50 miscoscope with DP Controller system. Evaluation of formation of tubes was expressed as a number of tubes and number of nodes of treated cells compared with untreated control using specific “in house” software.

Another test relates to CDK1/CDK2. Kind of test: Kinase inhibition assays using cell-free extracts. It is filed as biochemical, human. To be noted: 0.03 μM. As for the experimental part: Whole cell extracts were prepared by lysing Hep3B cells with a buffer containing 20 mM Tris pH 8.0, 100 mM NaCl, 1 mM EDTA and 0.5% NP-40. 100 μg of extract was used for immunoprecipitation at 4° C. for 4 hours either with 1 μg of the anti-CDK2 antibody M2 (Santa Cruz Biotechnology, Santa Cruz, USA) or with 1 μg of the anti-cyclin B1 antibody GNS1 (Santa Cruz Biotechnology, Santa Cruz, USA). The precipitated proteins were washed three times with lysis buffer followed by one wash with the kinase buffer (50 mM HEPES pH 7.5, 10 mM MgCl2 and 1 mM DTT) and subsequently resuspended in 20 μl kinase buffer containing 5 μCi [γ-^32P]ATP
(PerkinElmer, Santa Clara, USA), 1 μg histone H1 (New England Biolabs, Ipswich, USA) and the respective concentration of inhibitor. After incubation for 60 minutes at 30° C., the supernatant was boiled in sample buffer containing 60 mM Tris/HCl pH6.8, 10% Glycerol, 2% SDS, 5% β-mercaptoethanol, 0.02% Bromophenol Blue. The proteins were separated by SDS-PAGE and blotted onto nitrocellulose membrane. Thereafter, the membrane was stained with Ponceau S to check equal loading and analyzed by autoradiography.

T1 sequence (P50750 whole entry): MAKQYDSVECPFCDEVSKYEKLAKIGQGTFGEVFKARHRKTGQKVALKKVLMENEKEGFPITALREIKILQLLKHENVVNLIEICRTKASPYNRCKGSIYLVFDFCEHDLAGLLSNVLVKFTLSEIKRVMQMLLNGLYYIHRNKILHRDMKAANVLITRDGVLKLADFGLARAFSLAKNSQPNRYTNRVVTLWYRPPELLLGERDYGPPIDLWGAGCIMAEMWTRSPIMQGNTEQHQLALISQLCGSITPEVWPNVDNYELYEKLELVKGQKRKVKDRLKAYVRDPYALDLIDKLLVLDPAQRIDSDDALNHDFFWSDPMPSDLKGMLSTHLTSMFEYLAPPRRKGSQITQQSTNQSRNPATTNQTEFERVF
T1 sequence (O60563 whole entry partner): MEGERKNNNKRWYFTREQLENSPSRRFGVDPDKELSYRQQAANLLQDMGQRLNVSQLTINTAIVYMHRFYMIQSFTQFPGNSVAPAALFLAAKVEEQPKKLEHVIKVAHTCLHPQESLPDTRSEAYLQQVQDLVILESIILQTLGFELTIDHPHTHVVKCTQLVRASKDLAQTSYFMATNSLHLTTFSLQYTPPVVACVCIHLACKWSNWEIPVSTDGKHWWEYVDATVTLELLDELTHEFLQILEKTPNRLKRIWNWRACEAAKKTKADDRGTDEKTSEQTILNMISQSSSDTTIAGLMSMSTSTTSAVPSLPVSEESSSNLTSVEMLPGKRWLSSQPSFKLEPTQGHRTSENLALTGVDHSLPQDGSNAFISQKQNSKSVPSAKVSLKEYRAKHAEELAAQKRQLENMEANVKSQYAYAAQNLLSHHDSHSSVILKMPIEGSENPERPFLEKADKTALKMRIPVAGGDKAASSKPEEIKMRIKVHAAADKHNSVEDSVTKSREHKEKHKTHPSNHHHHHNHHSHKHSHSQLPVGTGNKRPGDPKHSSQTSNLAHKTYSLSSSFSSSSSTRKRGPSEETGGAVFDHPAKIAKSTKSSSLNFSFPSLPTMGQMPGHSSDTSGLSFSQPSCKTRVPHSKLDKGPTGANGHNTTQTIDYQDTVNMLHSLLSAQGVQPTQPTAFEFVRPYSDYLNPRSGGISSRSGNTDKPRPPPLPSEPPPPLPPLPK
T3 sequence (Q00535 whole entry): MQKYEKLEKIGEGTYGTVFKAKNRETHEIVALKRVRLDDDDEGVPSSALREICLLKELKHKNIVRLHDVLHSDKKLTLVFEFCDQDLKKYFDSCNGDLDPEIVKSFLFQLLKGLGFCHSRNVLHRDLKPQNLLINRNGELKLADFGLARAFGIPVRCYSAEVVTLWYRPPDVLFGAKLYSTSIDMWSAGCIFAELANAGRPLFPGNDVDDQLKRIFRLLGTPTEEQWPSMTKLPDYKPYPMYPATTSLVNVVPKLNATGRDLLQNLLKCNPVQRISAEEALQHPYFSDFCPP
T3 sequence (Q15078 whole entry partner): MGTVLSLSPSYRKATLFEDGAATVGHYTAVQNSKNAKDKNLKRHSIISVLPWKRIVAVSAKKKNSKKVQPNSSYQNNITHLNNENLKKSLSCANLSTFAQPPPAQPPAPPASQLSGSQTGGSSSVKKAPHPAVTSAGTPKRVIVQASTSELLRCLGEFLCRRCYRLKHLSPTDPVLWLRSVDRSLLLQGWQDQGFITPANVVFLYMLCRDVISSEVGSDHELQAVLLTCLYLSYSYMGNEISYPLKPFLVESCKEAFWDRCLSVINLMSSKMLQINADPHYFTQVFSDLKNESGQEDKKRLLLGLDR
T2 sequence (P50613 whole entry): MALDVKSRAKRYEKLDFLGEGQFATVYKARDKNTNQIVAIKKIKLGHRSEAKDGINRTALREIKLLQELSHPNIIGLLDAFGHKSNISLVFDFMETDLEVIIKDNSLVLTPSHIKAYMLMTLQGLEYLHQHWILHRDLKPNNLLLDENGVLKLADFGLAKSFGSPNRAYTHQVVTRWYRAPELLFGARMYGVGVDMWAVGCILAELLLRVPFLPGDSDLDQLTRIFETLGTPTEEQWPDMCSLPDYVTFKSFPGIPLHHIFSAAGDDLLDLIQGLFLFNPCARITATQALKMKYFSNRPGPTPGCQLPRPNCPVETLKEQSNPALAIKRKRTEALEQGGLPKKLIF
T2 sequence (P51946 whole entry partner): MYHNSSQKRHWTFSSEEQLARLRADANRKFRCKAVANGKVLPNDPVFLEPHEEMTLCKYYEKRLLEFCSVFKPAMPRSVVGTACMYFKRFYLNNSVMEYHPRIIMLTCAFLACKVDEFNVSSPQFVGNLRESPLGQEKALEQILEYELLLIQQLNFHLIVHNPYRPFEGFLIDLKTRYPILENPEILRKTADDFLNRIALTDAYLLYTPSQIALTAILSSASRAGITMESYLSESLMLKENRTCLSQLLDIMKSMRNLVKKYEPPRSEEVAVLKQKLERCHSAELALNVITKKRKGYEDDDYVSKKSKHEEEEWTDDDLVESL
T2 sequence (P51948 whole entry partner): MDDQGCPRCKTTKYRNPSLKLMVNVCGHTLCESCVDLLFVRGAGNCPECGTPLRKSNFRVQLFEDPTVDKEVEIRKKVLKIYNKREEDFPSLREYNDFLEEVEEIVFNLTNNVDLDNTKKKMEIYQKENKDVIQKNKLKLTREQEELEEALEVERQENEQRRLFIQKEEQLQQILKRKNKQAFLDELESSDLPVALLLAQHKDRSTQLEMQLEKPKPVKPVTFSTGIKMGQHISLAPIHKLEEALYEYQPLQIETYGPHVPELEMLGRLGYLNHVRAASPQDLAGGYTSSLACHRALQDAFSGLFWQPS

Take `COc1ccccc1-c1ccc(CNc2nc(NC3CCC(N)CC3)nc3c2ncn3C2CCCC2)cn1` (centres unmarked) [BP18, N^2-(4-amino-cyclohexyl)-9-cyclopentyl-N^6-[6-(2-methoxy-phenyl)-pyridin-3-ylmethyl]-9H-purine-2,6-diamine]: the remaining activity at 0.1 µM on CDK9/Cyclin T1 was determined as 32.6%; on CDK7/cyclin H/MAT1, 54.1%; at CDK5/p35, 49.2%. Also, the remaining activity at 1 µM amounted to 1.03% on CDK9/Cyclin T1, 24.1% on CDK7/cyclin H/MAT1 and 23.6% at CDK5/p35.

For `NC1CCC(Nc2nc(NCc3ccc(-c4ccco4)nc3)c3ncn(C4CCCC4)c3n2)CC1` (centres unmarked) [BP14, N^2-(4-amino-cyclohexyl)-9-cyclopentyl-N^6-(6-furan-2-yl-pyridin-3-ylmethyl)-9H-purine-2,6-diamine], the “reduction of clonogenic growth behavior” value with HepG2 and PLC cells is “more than 15 fold”. In the test on HUVEC cells, the “branching points, number of tubes, total tube length and mean tube length” value is “significantly reduced”. For the same compound, the figures for the remaining activity at 0.1 µM on CDK9/Cyclin T1, at CDK7/cyclin H/MAT1 and at CDK5/p35 were 22.3%, 54.8% and 37.8%, respectively. In addition, the remaining activity at 1 µM worked out at 0.73% on CDK9/Cyclin T1, 23.9% at CDK7/cyclin H/MAT1 and 24.8% at CDK5/p35. Moreover, the pIC50 on CDK9/Cyclin T1 (Table 12, read-out: IC50, CDK9/cyklin T) was 8.15. Also, the “CDK1/CDK2 activity in cell-free extracts” value in the test on CDK1/CDK2 is given as “significantly reduced CDK1/CDK2 activity”.

In the case of `NC1CCC(Nc2nc(NCc3ccc(-c4cccc(F)c4)nc3)c3ncn(C4CCCC4)c3n2)CC1` (centres unmarked) [BP19, N^2-(4-amino-cyclohexyl)-9-cyclopentyl-N^6-[6-(3-fluoro-phenyl)-pyridin-3-ylmethyl]-9H-purine-2,6-diamine], the figures for the remaining activity at 0.1 µM on CDK9/Cyclin T1, on CDK7/cyclin H/MAT1 and at CDK5/p35 were 26.6%, 55% and 37.7%, respectively. The remaining activity at 1 µM was determined as 0.83% at CDK9/Cyclin T1, 25% on CDK7/cyclin H/MAT1 and 25.6% on CDK5/p35.

In the case of `NC1CCC(Nc2nc(NCc3ccc(-c4cccs4)nc3)c3ncn(C4CCCC4)c3n2)CC1` (centres unmarked) [BP30, N^2-(4-amino-cyclohexyl)-9-cyclopentyl-N^6-(6-thiophen-2-yl-pyridin-3-ylmethyl)-9H-purine-2,6-diamine], the remaining activity at 0.1 µM at CDK9/Cyclin T1 stood at 19.6%; at CDK7/cyclin H/MAT1, 47.7%; on CDK5/p35 it was 26%. Besides, the remaining activity at 1 µM on CDK9/Cyclin T1 came out at 1.78%; at CDK7/cyclin H/MAT1, 16.5%; on CDK5/p35, 4.31%.

Regarding `NC1CCC(Nc2nc(NCc3ccc(-c4ccoc4)nc3)c3ncn(C4CCCC4)c3n2)CC1` (centres unmarked) [BP36, N^2-(4-amino-cyclohexyl)-9-cyclopentyl-N^6-(6-furan-3-yl-pyridin-3-ylmethyl)-9H-purine-2,6-diamine], the remaining activity at 0.1 µM stood at 15.4% at CDK9/Cyclin T1, 49.1% at CDK7/cyclin H/MAT1 and 31.9% at CDK5/p35. Further, the remaining activity at 1 µM was found to be 1.68% on CDK9/Cyclin T1, 17.3% on CDK7/cyclin H/MAT1 and 2.95% on CDK5/p35.

On to `NC1CCC(Nc2nc(NCc3ccc(-c4ccccc4O)nc3)c3ncn(C4CCCC4)c3n2)CC1` (centres unmarked) [BP20, N^2-(4-amino-cyclohexyl)-9-cyclopentyl-N^6-[6-(2-hydroxy-phenyl)-pyridin-3-ylmethyl]-9H-purine-2,6-diamine], for which the “branching points, number of tubes, total tube length and mean tube length” value with HUVEC cells is “significantly reduced”. Further, the values for the remaining activity at 0.1 µM at CDK9/Cyclin T1, at CDK7/cyclin H/MAT1 and at CDK5/p35 were 21.1%, 48% and 47.6%, respectively. The remaining activity at 1 µM at CDK9/Cyclin T1 worked out at 0.59%; on CDK7/cyclin H/MAT1, 17.3%; on CDK5/p35, 19.4%.

On to `OC1CCC(Nc2nc(NCc3ccc(-c4ccco4)nc3)c3ncn(C4CCCC4)c3n2)CC1` (centres unmarked) [BP21, 4-{9-cyclopentyl-6-[(6-furan-2-yl-pyridin-3-ylmethyl)-amino]-9H-purine-2-ylamino}-cyklohexanol], for which the remaining activity at 0.1 µM on CDK9/Cyclin T1 amounted to 49%; on CDK7/cyclin H/MAT1 it was 72%; on CDK5/p35 it was 88.2%. In addition, the remaining activity at 1 µM came out at 7.74% at CDK9/Cyclin T1, 48.5% at CDK7/cyclin H/MAT1 and 23.4% at CDK5/p35.

Take `NC1CCC(Nc2nc(NCc3ccc(-c4ccsc4)nc3)c3ncn(C4CCCC4)c3n2)CC1` (centres unmarked) [BP35, N^2-(4-amino-cyclohexyl)-9-cyclopentyl-N^6-(6-thiophen-3-yl-pyridin-3-ylmethyl)-9H-purine-2,6-diamine]: the remaining activity at 0.1 µM at CDK9/Cyclin T1 was 32.8%; on CDK7/cyclin H/MAT1, 64.1%; at CDK5/p35, 65%. The figures for the remaining activity at 1 µM on CDK9/Cyclin T1, at CDK7/cyclin H/MAT1 and on CDK5/p35 were 2.39%, 33.5% and 8.7%, respectively.

As to `Nc1ccccc1-c1ccc(CNc2nc(NC3CCC(N)CC3)nc3c2ncn3C2CCCC2)cn1` (centres unmarked) [BP22, N^2-(4-amino-cyclohexyl)-9-cyclopentyl-N^6-[6-(2-amino-phenyl)-pyridin-3-ylmethyl]-9H-purine-2,6-diamine], the remaining activity at 0.1 µM worked out at 93.4% at CDK9/Cyclin T1, 70% on CDK7/cyclin H/MAT1 and 87.8% at CDK5/p35. For the same compound, the figures for the remaining activity at 1 µM on CDK9/Cyclin T1, on CDK7/cyclin H/MAT1 and on CDK5/p35 were 82.8%, 93.9% and 89%, respectively.

The record behind these values is patent US20150368248A1, “2-SUBSTITUTED-6-BIARYLMETHYLAMINO-9-CYCLOPENTYL-9H-PURINE DERIVATIVES, USE THEREOF AS MEDICAMENTS, AND PHARMACEUTICAL COMPOSITIONS” (UNIVERZITA PALACKEHO V OLOMOUCI, priority 2013, published 2015).
